Data from the NIST ThermoML archive (doi:10.1021/acs.jced.9b00062).
Numbers after ± are expanded uncertainties.

Tests used:
[1] = Molar enthalpy of transition or fusion; conditions: Crystal; DSC
[2] = for Normal melting temperature: DTA

COc1c(Br)cc(Br)cc1Br [2,4,6-tribromoanisole]
Conditions | Molar enthalpy of transition or fusion [kcal/mol]
[1] | 5.71 ± 0.287

[2]
Conditions | vapor or sublimation pressure [kPa]
330.66 K, Crystal, Closed cell (Static) method | 0.00284 ± 0.00016
332.63 K, Crystal, Closed cell (Static) method | 0.00349 ± 0.00018
334.5 K, Crystal, Closed cell (Static) method | 0.0042 ± 0.0002
336.57 K, Metastable liquid, Closed cell (Static) method | 0.00889 ± 0.00037
336.63 K, Crystal, Closed cell (Static) method | 0.0051 ± 0.00023
338.58 K, Crystal, Closed cell (Static) method | 0.00623 ± 0.00027
338.61 K, Metastable liquid, Closed cell (Static) method | 0.01033 ± 0.00042
340.54 K, Crystal, Closed cell (Static) method | 0.00747 ± 0.00031
340.57 K, Metastable liquid, Closed cell (Static) method | 0.01173 ± 0.00047
342.54 K, Metastable liquid, Closed cell (Static) method | 0.01369 ± 0.00053
342.55 K, Crystal, Closed cell (Static) method | 0.00915 ± 0.00038
344.5 K, Crystal, Closed cell (Static) method | 0.01086 ± 0.00044
344.5 K, Metastable liquid, Closed cell (Static) method | 0.01549 ± 0.00055
346.47 K, Crystal, Closed cell (Static) method | 0.01317 ± 0.00052
346.48 K, Metastable liquid, Closed cell (Static) method | 0.01786 ± 0.00059
348.43 K, Crystal, Closed cell (Static) method | 0.01563 ± 0.00056
348.5 K, Metastable liquid, Closed cell (Static) method | 0.02061 ± 0.00063
350.42 K, Crystal, Closed cell (Static) method | 0.01881 ± 0.00061
350.43 K, Metastable liquid, Closed cell (Static) method | 0.02345 ± 0.00068
352.4 K, Crystal, Closed cell (Static) method | 0.0224 ± 0.00066
352.41 K, Metastable liquid, Closed cell (Static) method | 0.02697 ± 0.00073
354.32 K, Crystal, Closed cell (Static) method | 0.0266 ± 0.00073
354.42 K, Metastable liquid, Closed cell (Static) method | 0.03065 ± 0.00079
356.36 K, Metastable liquid, Closed cell (Static) method | 0.03485 ± 0.00085
356.37 K, Crystal, Closed cell (Static) method | 0.03175 ± 0.0008
358.31 K, Metastable liquid, Closed cell (Static) method | 0.03946 ± 0.00092
360.25 K, Metastable liquid, Closed cell (Static) method | 0.04472 ± 0.001
362.27 K, Closed cell (Static) method, Liquid | 0.05049 ± 0.0011
364.24 K, Closed cell (Static) method, Liquid | 0.05678 ± 0.0012
366.22 K, Closed cell (Static) method, Liquid | 0.06459 ± 0.0013
368.15 K, Closed cell (Static) method, Liquid | 0.07257 ± 0.0014
370.19 K, Closed cell (Static) method, Liquid | 0.08197 ± 0.0016
372.11 K, Closed cell (Static) method, Liquid | 0.09183 ± 0.0017
374.05 K, Closed cell (Static) method, Liquid | 0.1023 ± 0.0019
376.07 K, Closed cell (Static) method, Liquid | 0.1152 ± 0.0021
377.95 K, Closed cell (Static) method, Liquid | 0.1277 ± 0.0023
379.95 K, Closed cell (Static) method, Liquid | 0.1426 ± 0.0021
381.85 K, Closed cell (Static) method, Liquid | 0.1595 ± 0.0023
383.82 K, Closed cell (Static) method, Liquid | 0.177 ± 0.0024
385.79 K, Closed cell (Static) method, Liquid | 0.1958 ± 0.0025
387.78 K, Closed cell (Static) method, Liquid | 0.2203 ± 0.0027
389.79 K, Closed cell (Static) method, Liquid | 0.2436 ± 0.0029
391.72 K, Closed cell (Static) method, Liquid | 0.2676 ± 0.0031

Conditions | Normal melting temperature [°C]
[2], Crystal | 86.29 ± 0.4

Oc1c(Br)cc(Br)cc1Br [2,4,6-tribromophenol]
Conditions | Molar enthalpy of transition or fusion [kcal/mol]
[1] | 4.97 ± 0.215

Conditions | mass density [kg/m3]
[2], 150 K, 101.33 kPa, Crystal, X-ray diffraction | 2712 ± 13

[2]
Conditions | vapor or sublimation pressure [kPa]
307.16 K, Crystal, Calculated from knudsen effusion weight loss | 0.000107 ± 6e-06
309.36 K, Crystal, Calculated from knudsen effusion weight loss | 0.000141 ± 8e-06
311.2 K, Crystal, Calculated from knudsen effusion weight loss | 0.000177 ± 9e-06
313.15 K, Crystal, Calculated from knudsen effusion weight loss | 0.000221 ± 1.2e-05
315.37 K, Crystal, Calculated from knudsen effusion weight loss | 0.000286 ± 1.5e-05
317.19 K, Crystal, Calculated from knudsen effusion weight loss | 0.000358 ± 1.9e-05
319.15 K, Crystal, Calculated from knudsen effusion weight loss | 0.00044 ± 2.4e-05
321.33 K, Crystal, Calculated from knudsen effusion weight loss | 0.00057 ± 3e-05
323.2 K, Crystal, Calculated from knudsen effusion weight loss | 0.0007 ± 3.7e-05
325.15 K, Crystal, Calculated from knudsen effusion weight loss | 0.000857 ± 4.6e-05
327.33 K, Crystal, Calculated from knudsen effusion weight loss | 0.0011 ± 9.1e-05
329.21 K, Crystal, Calculated from knudsen effusion weight loss | 0.00133 ± 0.00011
336.49 K, Crystal, Closed cell (Static) method | 0.00284 ± 0.00016
338.49 K, Crystal, Closed cell (Static) method | 0.00343 ± 0.00018
340.48 K, Crystal, Closed cell (Static) method | 0.00423 ± 0.0002
342.48 K, Crystal, Closed cell (Static) method | 0.00513 ± 0.00023
344.42 K, Crystal, Closed cell (Static) method | 0.00612 ± 0.00027
344.43 K, Metastable liquid, Closed cell (Static) method | 0.01029 ± 0.00042
346.35 K, Crystal, Closed cell (Static) method | 0.00743 ± 0.00031
346.53 K, Metastable liquid, Closed cell (Static) method | 0.012 ± 0.00048
348.28 K, Metastable liquid, Closed cell (Static) method | 0.01367 ± 0.00053
348.35 K, Crystal, Closed cell (Static) method | 0.00894 ± 0.00037
350.35 K, Crystal, Closed cell (Static) method | 0.01085 ± 0.00044
350.37 K, Metastable liquid, Closed cell (Static) method | 0.01582 ± 0.00056
352.36 K, Metastable liquid, Closed cell (Static) method | 0.01813 ± 0.0006
352.41 K, Crystal, Closed cell (Static) method | 0.01316 ± 0.00052
354.35 K, Metastable liquid, Closed cell (Static) method | 0.02079 ± 0.00064
354.4 K, Crystal, Closed cell (Static) method | 0.01584 ± 0.00056
356.31 K, Metastable liquid, Closed cell (Static) method | 0.02367 ± 0.00068
358.2 K, Metastable liquid, Closed cell (Static) method | 0.02689 ± 0.00073
360.17 K, Metastable liquid, Closed cell (Static) method | 0.03085 ± 0.00079
362.2 K, Metastable liquid, Closed cell (Static) method | 0.03491 ± 0.00085
364.19 K, Metastable liquid, Closed cell (Static) method | 0.04045 ± 0.00094
366.13 K, Metastable liquid, Closed cell (Static) method | 0.04605 ± 0.001
368.11 K, Closed cell (Static) method, Liquid | 0.05207 ± 0.0011
370.06 K, Closed cell (Static) method, Liquid | 0.05865 ± 0.0012
372.03 K, Closed cell (Static) method, Liquid | 0.06591 ± 0.0013
374.17 K, Closed cell (Static) method, Liquid | 0.07545 ± 0.0015
376.12 K, Closed cell (Static) method, Liquid | 0.08537 ± 0.0016
378.03 K, Closed cell (Static) method, Liquid | 0.09595 ± 0.0018
380 K, Closed cell (Static) method, Liquid | 0.1071 ± 0.002
381.93 K, Closed cell (Static) method, Liquid | 0.119 ± 0.0022
383.93 K, Closed cell (Static) method, Liquid | 0.1348 ± 0.0021
385.88 K, Closed cell (Static) method, Liquid | 0.1513 ± 0.0022
387.86 K, Closed cell (Static) method, Liquid | 0.1682 ± 0.0023
389.84 K, Closed cell (Static) method, Liquid | 0.1876 ± 0.0025
391.79 K, Closed cell (Static) method, Liquid | 0.2094 ± 0.0026
393.77 K, Closed cell (Static) method, Liquid | 0.2339 ± 0.0028
395.73 K, Closed cell (Static) method, Liquid | 0.259 ± 0.0031
397.68 K, Closed cell (Static) method, Liquid | 0.284 ± 0.0033
399.69 K, Closed cell (Static) method, Liquid | 0.3164 ± 0.0036
401.66 K, Closed cell (Static) method, Liquid | 0.3517 ± 0.0039

Conditions | Normal melting temperature [°C]
[2], Crystal | 92.92 ± 0.39

COc1c(Cl)cc(Cl)cc1Cl [2,4,6-trichloroanisole]
Conditions | Molar enthalpy of transition or fusion [kcal/mol]
[1] | 5.35 ± 0.186

[2]
Conditions | vapor or sublimation pressure [kPa]
297.11 K, Crystal, Closed cell (Static) method | 0.00239 ± 0.00014
300.13 K, Crystal, Closed cell (Static) method | 0.00337 ± 0.00017
303.1 K, Crystal, Closed cell (Static) method | 0.00462 ± 0.00021
306.06 K, Crystal, Closed cell (Static) method | 0.00649 ± 0.00028
309.01 K, Crystal, Closed cell (Static) method | 0.00877 ± 0.00036
311.98 K, Crystal, Closed cell (Static) method | 0.01199 ± 0.00048
315.2 K, Crystal, Closed cell (Static) method | 0.01642 ± 0.00057
317.95 K, Crystal, Closed cell (Static) method | 0.02189 ± 0.00065
319.65 K, Metastable liquid, Closed cell (Static) method | 0.03551 ± 0.00086
320.87 K, Crystal, Closed cell (Static) method | 0.02895 ± 0.00076
322.82 K, Metastable liquid, Closed cell (Static) method | 0.04391 ± 0.00099
323.91 K, Crystal, Closed cell (Static) method | 0.03921 ± 0.00092
325.77 K, Metastable liquid, Closed cell (Static) method | 0.05384 ± 0.0011
326.89 K, Crystal, Closed cell (Static) method | 0.05174 ± 0.0011
328.77 K, Metastable liquid, Closed cell (Static) method | 0.06611 ± 0.0013
329.85 K, Crystal, Closed cell (Static) method | 0.06647 ± 0.0013
331.73 K, Metastable liquid, Closed cell (Static) method | 0.0803 ± 0.0015
334.71 K, Closed cell (Static) method, Liquid | 0.09766 ± 0.0018
337.68 K, Closed cell (Static) method, Liquid | 0.118 ± 0.0021
340.63 K, Closed cell (Static) method, Liquid | 0.1424 ± 0.0021
343.63 K, Closed cell (Static) method, Liquid | 0.1712 ± 0.0023
346.05 K, Closed cell (Static) method, Liquid | 0.1971 ± 0.0025
348.6 K, Closed cell (Static) method, Liquid | 0.2292 ± 0.0028
351.58 K, Closed cell (Static) method, Liquid | 0.2724 ± 0.0032
354.51 K, Closed cell (Static) method, Liquid | 0.3225 ± 0.0036
356.47 K, Closed cell (Static) method, Liquid | 0.3593 ± 0.0039
359.37 K, Closed cell (Static) method, Liquid | 0.4214 ± 0.0045
362.38 K, Closed cell (Static) method, Liquid | 0.4943 ± 0.0051
365.32 K, Closed cell (Static) method, Liquid | 0.5801 ± 0.0058
368.31 K, Closed cell (Static) method, Liquid | 0.6729 ± 0.0066

Conditions | Normal melting temperature [°C]
[2], Crystal | 59.32 ± 0.39
